From patent US20260201008A1, “SECRETIN-DERIVED GLP1R SELECTIVE AGONISTS” (GUBRA A/S, priority 2023, published 2026) come the findings set out here.

Data set [1] in a line: Turbidity of crude library peptides (absorbance at 600 nm). The following applies: Physical stability of peptides. Type of data set: physicochemical. Summed up:
(§1)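 Values reflect mean ThT emission (ex 450, em 480 nm) over 72 h at 40° C, read every 10 min after 5 min shaking at 700 rpm, plus a single initial absorbance at 600 nm for turbidity. Peptides were at 267 μM, pH 4.0 acetate or pH 7.0 phosphate (50 mM), with 4 μM ThT.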

Data set [2] in a line: Fibril formation of crude library peptides (Thioflavin T). Type of data set: physicochemical. The following applies: Physical stability of peptides. More on the design: key: average ThT fluorescence emission at 480 nm (ex 450 nm), raw units. In short, it runs like this: as §1
A further data set has as its target GLP1R (Homo sapiens, UniProt P43220). Nature of the data set: hGLP1R potency, cAMP accumulation in CHO-K1 cells stably overexpressing hGLP1R. More on the design: host or cells: CHO-K1. The following applies: for SCTR EC50/GLP1R EC50 ratio: selectivity for hGLP1R over hSCTR, cAMP accumulation in CHO-K1 cells. The data set is classed as cell-based. In short, it runs like this: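 Cells were plated in DPBS with 0.05% casein and 0.5 mM IBMX, then stimulated for 30 min at room temperature with test compound. cAMP was read by TR-FRET after one hour. EC50 came from variable-slope sigmoid nonlinear regression; purified peptides ran as 11-point 3-fold series, n=2.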
A general note: Cyclic AMP is a second messenger, typically raised through Gs and lowered through Gi signalling.

The next data set has as its target SCTR (Homo sapiens, UniProt P47872). Nature of the data set: hSCTR potency, cAMP accumulation in CHO-K1 cells stably overexpressing hSCTR. Type of data set: cell-based. On the set-up: alternatively Euroscreen ES-712-AF; FAST-0161L; host or cells: CHO-K1. Summed up: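 Division-arrested CHO-K1 cells stably expressing hSCTR were plated in DPBS with 0.05% casein and 0.5 mM IBMX, then stimulated with test peptide for 30 min at room temperature. cAMP was read by HTRF after one hour. EC50 came from variable-slope sigmoidal nonlinear regression.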

Where [3] appears, read: cAMP accumulation, CHO-K1 cells overexpressing hGLP1R, read-out: hGLP1R pEC50 (converted).
Setting [4] is: cAMP accumulation, CHO-K1 cells overexpressing hSCTR, read-out: hSCTR pEC50 (converted).

Like-named read-outs stand apart in the source and are kept apart here. Numbered stars: 1 amine (or outer) side, 2 acyl side, 3 side chain; on linkers, the order of the positions; unused ones are H or OH. Square brackets hold non-standard residues; d marks the D form. Side chains are listed from the residue outwards. Peptide text beside a SMILES is read from it. * marks the point of attachment. C20 diacid = O=C(O)CCCCCCCCCCCCCCCCCCC(=O)*; γGlu = O=C(O)[C@H](CCC(=O)[*:2])N[*:1]; AEEA = NCCOCCOCC(=O)O; Aib = CC(C)(N)C(=O)O

Chain of SCTR (P47872 23-440): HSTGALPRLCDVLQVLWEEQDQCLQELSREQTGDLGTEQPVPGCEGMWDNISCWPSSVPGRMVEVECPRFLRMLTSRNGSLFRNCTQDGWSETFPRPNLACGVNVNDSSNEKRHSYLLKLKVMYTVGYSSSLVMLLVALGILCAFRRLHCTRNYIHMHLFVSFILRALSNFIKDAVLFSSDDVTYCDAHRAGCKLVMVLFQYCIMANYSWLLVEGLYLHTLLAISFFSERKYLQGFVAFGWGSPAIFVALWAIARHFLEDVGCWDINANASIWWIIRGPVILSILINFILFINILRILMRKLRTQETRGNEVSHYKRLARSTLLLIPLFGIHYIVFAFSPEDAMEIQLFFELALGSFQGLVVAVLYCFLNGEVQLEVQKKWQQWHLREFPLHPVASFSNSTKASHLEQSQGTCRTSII
Chain of GLP1R (P43220 24-463): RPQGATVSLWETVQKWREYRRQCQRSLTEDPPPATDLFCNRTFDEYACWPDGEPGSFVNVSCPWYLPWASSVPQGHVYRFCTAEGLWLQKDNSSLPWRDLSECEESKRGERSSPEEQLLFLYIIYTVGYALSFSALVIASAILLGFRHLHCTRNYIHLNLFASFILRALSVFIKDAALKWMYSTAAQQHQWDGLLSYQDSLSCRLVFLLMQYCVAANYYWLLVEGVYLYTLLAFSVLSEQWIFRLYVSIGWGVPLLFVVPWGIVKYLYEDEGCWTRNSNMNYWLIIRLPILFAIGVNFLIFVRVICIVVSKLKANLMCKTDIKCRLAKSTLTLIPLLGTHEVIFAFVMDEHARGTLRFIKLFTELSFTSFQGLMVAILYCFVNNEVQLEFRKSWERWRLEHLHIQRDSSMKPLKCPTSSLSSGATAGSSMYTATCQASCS

`CC(C)C[C@H](NC(=O)[C@H](C)NC(=O)[C@H](CO)NC(=O)[C@@H](NC(=O)[C@H](CC(=O)O)NC(=O)[C@H](CO)NC(=O)[C@@H](NC(=O)[C@H](Cc1ccccc1)NC(=O)[C@@H](NC(=O)CNC(=O)[C@H](CCC(=O)O)NC(=O)C(C)(C)NC(=O)[C@@H](N)Cc1c[nH]cn1)[C@@H](C)O)[C@@H](C)O)C(C)C)C(=O)N[C@@H](CCCCNC(=O)COCCOCCNC(=O)COCCOCCNC(=O)CC[C@H](NC(=O)CCCCCCCCCCCCCCCCCCC(=O)O)C(=O)O)C(=O)N[C@@H](CCC(=O)O)C(=O)N[C@@H](CCC(=O)O)C(=O)N[C@@H](C)C(=O)NC(C)(C)C(=O)N[C@@H](CC(C)C)C(=O)N[C@@H](CCC(N)=O)C(=O)N[C@@H](CCCNC(=N)N)C(=O)N[C@@H](Cc1ccccc1)C(=O)N[C@@H](CC(C)C)C(=O)N[C@@H](CCC(=O)O)C(=O)N[C@@H](Cc1c[nH]cn1)C(=O)N[C@@H](CC(C)C)C(=O)N[C@H](C(N)=O)C(C)C` [compound 148] (H-H[Aib]EGTFTSDVSALK([AEEA-AEEA-γGlu-C20 diacid])EEA[Aib]LQRFLEHLV-NH2): the “Turbidity (pH 7)” value in data set [1] is on record as 0.08. For the same compound, in data set [2], the Fibril formation is 2928. The EC50 was 0.0158 nM at GLP1R (setting [3]) and 63.1 nM at SCTR (setting [4]). Besides, the “SCTR EC50/GLP1R EC50 ratio” value on GLP1R is reported as 4094.
As for `CC[C@H](C)[C@H](NC(=O)[C@H](Cc1ccccc1)NC(=O)[C@H](CCCNC(=N)N)NC(=O)[C@H](CCC(N)=O)NC(=O)[C@H](CC(C)C)NC(=O)[C@H](C)NC(=O)[C@H](C)NC(=O)CNC(=O)[C@H](CCC(=O)O)NC(=O)[C@H](CC(C)C)NC(=O)[C@H](CC(C)C)NC(=O)[C@H](CCC(=O)O)NC(=O)[C@H](CO)NC(=O)[C@@H](NC(=O)[C@H](CC(=O)O)NC(=O)[C@H](CO)NC(=O)[C@@H](NC(=O)[C@H](Cc1ccccc1)NC(=O)[C@@H](NC(=O)CNC(=O)[C@H](CCC(=O)O)NC(=O)C(C)(C)NC(=O)[C@@H](N)Cc1c[nH]cn1)[C@@H](C)O)[C@@H](C)O)C(C)C)C(=O)N[C@@H](CCC(N)=O)C(=O)N[C@@H](Cc1c[nH]c2ccccc12)C(=O)N[C@@H](CC(C)C)C(=O)N[C@H](C(N)=O)C(C)C` [compound 180] (H-H[Aib]EGTFTSDVSELLEGAALQRFIQWLV-NH2), in data set [1], the “Turbidity (pH 7)” value was 0.12. Further, the Fibril formation in data set [2] worked out at 53478. The EC50 was 0.0158 nM on GLP1R (setting [3]) and 200 nM on SCTR (setting [4]). Besides, on GLP1R, the “SCTR EC50/GLP1R EC50 ratio” value came to 11144.
For the compound `CC(C)C[C@H](NC(=O)[C@H](Cc1ccccc1)NC(=O)[C@H](CCCNC(=N)N)NC(=O)[C@H](CCC(N)=O)NC(=O)CNC(=O)C(C)(C)NC(=O)[C@H](C)NC(=O)[C@H](CCC(=O)O)NC(=O)[C@H](CCC(=O)O)NC(=O)[C@H](CCCCNC(=O)COCCOCCNC(=O)COCCOCCNC(=O)CC[C@H](NC(=O)CCCCCCCCCCCCCCCCCCC(=O)O)C(=O)O)NC(=O)[C@H](CC(C)C)NC(=O)[C@H](Cc1ccc(O)cc1)NC(=O)[C@H](CO)NC(=O)[C@@H](NC(=O)[C@H](CC(=O)O)NC(=O)[C@H](CO)NC(=O)[C@@H](NC(=O)[C@H](Cc1ccccc1)NC(=O)[C@@H](NC(=O)CNC(=O)[C@H](CCC(=O)O)NC(=O)C(C)(C)NC(=O)[C@@H](N)Cc1c[nH]cn1)[C@@H](C)O)[C@@H](C)O)C(C)C)C(=O)N[C@@H](CCC(=O)O)C(=O)N[C@@H](Cc1c[nH]cn1)C(=O)N[C@@H](CC(C)C)C(=O)N[C@H](C(N)=O)C(C)C` [compound 154] (H-H[Aib]EGTFTSDVSYLK([AEEA-AEEA-γGlu-C20 diacid])EEA[Aib]GQRFLEHLV-NH2), in data set [1], the “Turbidity (pH 7)” value was 0.08. In data set [2], the Fibril formation worked out at 3107. The EC50 was 0.0158 nM at GLP1R (setting [3]) and 3980 nM at SCTR (setting [4]). Besides, the “SCTR EC50/GLP1R EC50 ratio” value on GLP1R came out at 203892.
Consider `CC(C)C[C@H](NC(=O)[C@H](Cc1ccccc1)NC(=O)[C@H](CCCNC(=N)N)NC(=O)[C@H](CCC(N)=O)NC(=O)[C@H](C)NC(=O)[C@H](C)NC(=O)[C@H](C)NC(=O)C(C)(C)NC(=O)[C@H](CCC(=O)O)NC(=O)[C@H](CCCCNC(=O)COCCOCCNC(=O)COCCOCCNC(=O)CC[C@H](NC(=O)CCCCCCCCCCCCCCCCCCC(=O)O)C(=O)O)NC(=O)[C@H](CC(C)C)NC(=O)[C@@H](NC(=O)[C@H](CO)NC(=O)[C@@H](NC(=O)[C@H](CC(=O)O)NC(=O)[C@H](CO)NC(=O)[C@@H](NC(=O)[C@H](Cc1ccccc1)NC(=O)[C@@H](NC(=O)CNC(=O)[C@H](CCC(=O)O)NC(=O)C(C)(C)NC(=O)[C@@H](N)Cc1c[nH]cn1)[C@@H](C)O)[C@@H](C)O)C(C)C)[C@@H](C)O)C(=O)N[C@@H](CCC(=O)O)C(=O)N[C@@H](Cc1c[nH]cn1)C(=O)N[C@@H](CC(C)C)C(=O)N[C@H](C(N)=O)C(C)C` [compound 43] (H-H[Aib]EGTFTSDVSTLK([AEEA-AEEA-γGlu-C20 diacid])E[Aib]AAAQRFLEHLV-NH2), for which the “Turbidity (pH 7)” value in data set [1] is given as 0.09. The compound also displayed a Fibril formation in data set [2] of 18355. Besides, the EC50 at GLP1R is 0.01 nM; on SCTR, 316 nM. Moreover, on GLP1R (SCTR EC50/GLP1R EC50 ratio), the Selectivity stood at 36686.
On to `CC(C)C[C@H](NC(=O)[C@H](CCC(=O)O)NC(=O)[C@H](CCCCNC(=O)COCCOCCNC(=O)COCCOCCNC(=O)CC[C@H](NC(=O)CCCCCCCCCCCCCCCCCCC(=O)O)C(=O)O)NC(=O)[C@H](CC(C)C)NC(=O)[C@H](CCC(=O)O)NC(=O)[C@H](CO)NC(=O)[C@@H](NC(=O)[C@H](CC(=O)O)NC(=O)[C@H](CO)NC(=O)[C@@H](NC(=O)[C@H](Cc1ccccc1)NC(=O)[C@@H](NC(=O)CNC(=O)[C@H](CCC(=O)O)NC(=O)C(C)(C)NC(=O)[C@@H](N)Cc1c[nH]cn1)[C@@H](C)O)[C@@H](C)O)C(C)C)C(=O)N[C@@H](C)C(=O)N[C@@H](C)C(=O)N[C@@H](CCC(N)=O)C(=O)N[C@@H](CCC(N)=O)C(=O)N[C@@H](CCCNC(=N)N)C(=O)N[C@@H](Cc1ccccc1)C(=O)N[C@@H](CC(C)C)C(=O)N[C@@H](CCC(=O)O)C(=O)N[C@@H](Cc1c[nH]cn1)C(=O)N[C@@H](CC(C)C)C(=O)N[C@H](C(N)=O)C(C)C` [compound 99] (H-H[Aib]EGTFTSDVSELK([AEEA-AEEA-γGlu-C20 diacid])ELAAQQRFLEHLV-NH2), for which, in data set [1], the “Turbidity (pH 7)” value came out at 0.17. In data set [2], this compound returned a Fibril formation of 87225. Further, the results for the EC50 on GLP1R (setting [3]) and on SCTR (setting [4]) were 0.0158 nM and 794 nM, respectively. For the same compound, the “SCTR EC50/GLP1R EC50 ratio” value at GLP1R turned out to be 52372.
As to `CC[C@H](C)[C@H](NC(=O)[C@H](Cc1ccccc1)NC(=O)[C@H](CCCNC(=N)N)NC(=O)[C@H](CCC(N)=O)NC(=O)[C@H](CC(C)C)NC(=O)[C@H](C)NC(=O)[C@H](C)NC(=O)CNC(=O)[C@H](CCC(=O)O)NC(=O)[C@H](CC(C)C)NC(=O)[C@H](CC(C)C)NC(=O)CNC(=O)[C@H](CO)NC(=O)[C@@H]1CCCN1C(=O)[C@H](CC(=O)O)NC(=O)[C@H](CO)NC(=O)[C@@H](NC(=O)[C@H](Cc1ccccc1)NC(=O)[C@@H](NC(=O)CNC(=O)[C@H](CCC(=O)O)NC(=O)C(C)(C)NC(=O)[C@@H](N)Cc1c[nH]cn1)[C@@H](C)O)[C@@H](C)O)C(=O)N[C@@H](CCC(N)=O)C(=O)N[C@@H](Cc1c[nH]c2ccccc12)C(=O)N[C@@H](CC(C)C)C(=O)N[C@H](C(N)=O)C(C)C` [compound 123] (H-H[Aib]EGTFTSDPSGLLEGAALQRFIQWLV-NH2), in data set [1], the “Turbidity (pH 7)” value is on record as 0.11. Besides, the Fibril formation in data set [2] is 3764. The figures for the EC50 at GLP1R (setting [3]) and at SCTR (setting [4]) were 10 nM and 6310 nM, respectively. For the same compound, on GLP1R, the “SCTR EC50/GLP1R EC50 ratio” value was found to be 671.
The like results for `CC(C)C[C@H](NC(=O)[C@H](Cc1ccccc1)NC(=O)[C@H](CCCNC(=N)N)NC(=O)[C@H](CCC(N)=O)NC(=O)[C@H](CCC(N)=O)NC(=O)[C@H](C)NC(=O)[C@H](C)NC(=O)C(C)(C)NC(=O)[C@H](CCC(=O)O)NC(=O)[C@H](CCCCNC(=O)COCCOCCNC(=O)COCCOCCNC(=O)CC[C@H](NC(=O)CCCCCCCCCCCCCCCCCCC(=O)O)C(=O)O)NC(=O)[C@H](CC(C)C)NC(=O)[C@@H](NC(=O)[C@H](CO)NC(=O)[C@@H](NC(=O)[C@H](CC(=O)O)NC(=O)[C@H](CO)NC(=O)[C@@H](NC(=O)[C@H](Cc1ccccc1)NC(=O)[C@@H](NC(=O)CNC(=O)[C@H](CCC(=O)O)NC(=O)C(C)(C)NC(=O)[C@@H](N)Cc1c[nH]cn1)[C@@H](C)O)[C@@H](C)O)C(C)C)[C@@H](C)O)C(=O)N[C@@H](CCC(=O)O)C(=O)N[C@@H](Cc1c[nH]cn1)C(=O)N[C@@H](CC(C)C)C(=O)N[C@H](C(N)=O)C(C)C` [compound 88] (H-H[Aib]EGTFTSDVSTLK([AEEA-AEEA-γGlu-C20 diacid])E[Aib]AAQQRFLEHLV-NH2) were, in that order, 0.08, 10893, 0.00398 nM, 158 nM and 42658.
